One test addresses T1, human CYP4F2 (Homo sapiens, UniProt P78329).
T1 construct: host or cells: Escherichia coli (membrane fraction)
T1 sequence (P78329 5-520): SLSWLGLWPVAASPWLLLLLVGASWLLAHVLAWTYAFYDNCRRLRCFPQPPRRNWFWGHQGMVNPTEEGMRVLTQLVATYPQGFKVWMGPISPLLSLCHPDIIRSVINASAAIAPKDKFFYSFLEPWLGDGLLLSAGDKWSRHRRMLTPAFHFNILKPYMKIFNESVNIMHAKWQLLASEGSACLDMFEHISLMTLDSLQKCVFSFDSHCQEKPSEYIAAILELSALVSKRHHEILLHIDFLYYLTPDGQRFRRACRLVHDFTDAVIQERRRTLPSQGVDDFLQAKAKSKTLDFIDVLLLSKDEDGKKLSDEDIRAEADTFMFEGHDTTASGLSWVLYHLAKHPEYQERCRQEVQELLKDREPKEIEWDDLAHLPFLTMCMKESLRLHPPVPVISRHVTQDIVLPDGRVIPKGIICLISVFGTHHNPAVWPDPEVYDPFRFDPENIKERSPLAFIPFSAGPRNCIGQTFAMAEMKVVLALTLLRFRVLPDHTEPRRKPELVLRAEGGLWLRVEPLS
The experiment in a line: CYP4F2 inhibition test (Test Example 1). Type of test: biochemical. As to conditions: Escherichia coli membrane fraction expressing human CYP4F2, 2.5 μM luciferine derivative, room temperature 60 minutes, luminescence. The method in brief:
(§1)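 E. coli membranes expressing human enzyme (100 μg/mL protein) with luciferin-derivative substrate, 60 min at room temperature, then luminescence read. CYP4F2: 50 mM KPO4 pH 7.4, 2.5 μM substrate, 1 mM NADPH. CYP4A11: 100 mM Tris-HCl pH 7.5, 60 μM substrate, NADP+/glucose 6-phosphate regenerating system.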

Another test addresses T2, human CYP4A11 (Homo sapiens, UniProt Q02928).
T2 construct: host or cells: Escherichia coli (membrane fraction)
T2 sequence (Q02928 5-519): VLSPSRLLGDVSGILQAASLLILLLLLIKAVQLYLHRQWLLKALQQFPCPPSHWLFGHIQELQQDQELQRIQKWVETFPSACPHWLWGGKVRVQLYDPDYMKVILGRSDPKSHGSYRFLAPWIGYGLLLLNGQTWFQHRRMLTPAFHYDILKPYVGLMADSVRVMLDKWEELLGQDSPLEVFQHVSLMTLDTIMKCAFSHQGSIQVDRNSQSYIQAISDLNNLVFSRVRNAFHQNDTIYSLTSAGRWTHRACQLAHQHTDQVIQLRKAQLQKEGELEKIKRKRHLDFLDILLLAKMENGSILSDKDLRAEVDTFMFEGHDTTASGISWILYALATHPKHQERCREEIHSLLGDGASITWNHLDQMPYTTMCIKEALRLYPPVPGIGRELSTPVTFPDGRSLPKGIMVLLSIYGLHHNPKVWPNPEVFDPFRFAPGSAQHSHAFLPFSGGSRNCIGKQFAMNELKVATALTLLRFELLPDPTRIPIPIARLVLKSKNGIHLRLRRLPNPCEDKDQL
The experiment in a line: CYP4A11 inhibition test (Test Example 1). Type of test: biochemical. The settings on record: Escherichia coli membrane fraction expressing human CYP4A11, 60 μM luciferine derivative, room temperature 60 minutes, luminescence. The method in brief:
as §1

On to `CN(C(=O)N1CCC(COc2ccc(-c3ccn[nH]3)nc2)CC1)C1CC1` [Example 8-2, N-Cyclopropyl-N-methyl-4-({[6-(1H-pyrazol-5-yl)pyridin-3-yl]oxy}methyl)piperidin-1-carboxamide], for which the IC50 against human CYP4F2 was found to be 90 nM; against human CYP4A11, 930 nM.
The like results for `CNC(=O)N1CCC[C@H](COc2ccc(-c3ccn[nH]3)nc2)C1` [Example 6-4] were, in that order, 110 nM and 1100 nM.
As to `CC(=O)N1CC[C@H](COc2ccc(-c3ccn[nH]3)nc2)C1` [Example 20-2], the IC50 against human CYP4F2 was determined as 240 nM; against human CYP4A11 it was 1600 nM.
Turning to `CS(=O)(=O)c1cccc(COc2ccc(-c3cnsc3)nc2)c1` [Example 41-3], the results for the IC50 against human CYP4F2 and on human CYP4A11 were 1600 nM and 520 nM, respectively.
The corresponding values for `CC(=O)N1C[C@@H]2[C@@H](COc3ccc(-c4ccn[nH]4)nc3)[C@@H]2C1` [Example 14-2] are 16 nM and 2800 nM.
Turning to `CC(=O)N1CC[C@@H](COc2ccc(-c3ccn[nH]3)nc2)C1` [Example 20-1, 1-[(3R)-3-({[6-(1H-Pyrazol-5-yl)pyridin-3-yl]oxy}methyl)pyrrolidin-1-yl]ethan-1-one], the figures for the IC50 against human CYP4F2 and against human CYP4A11 were 240 nM and 1600 nM, respectively.
As to `C[C@H](CNC(=O)OC(C)(C)C)C(=O)N1CCC[C@@H](COc2ccc(-c3ccn[nH]3)nc2)C1` [Example 2-12], the IC50 is 23 nM at human CYP4F2 and 540 nM against human CYP4A11.
The corresponding values for `CN(C)C(=O)CC(=O)N1CCC[C@@H](COc2ccc(-c3ccn[nH]3)nc2)C1` [Example 2-15] are 12000 nM and 5800 nM.
The like results for `Clc1cn[nH]c1-c1ccc(OCC2CCOCC2)cn1` [Example 23-5] were, in that order, 61 nM and 52 nM.
As to `O=C(NCCC(=O)N1CCC[C@@H](COc2ccc(-c3ccn[nH]3)nc2)C1)C1CC(F)(F)C1` [Example 4-9], the IC50 against human CYP4F2 is 16 nM; on human CYP4A11, 97 nM.
The like results for `CNC(=O)N1CCC[C@@H](COc2ccc(-c3ccn[nH]3)nc2)C1` [Example 6-3] were, in that order, 570 nM and 450 nM.
For `CC(=O)N1CCC[C@@H](CCOc2ccc(-c3ccn[nH]3)nc2)C1` [Example 13-4], the results for the 50% inhibitory concentration (IC50) against human CYP4F2 and against human CYP4A11 were 250 nM and 1300 nM, respectively.
Take `COc1ccc(COc2ccc(-c3ccn[nH]3)nc2)cc1S(C)(=O)=O` [Example 25-10]: the results for the IC50 on human CYP4F2 and against human CYP4A11 were 20 nM and 1100 nM, respectively.
Take `O=S(=O)(CCCN1CCCC1)c1cccc(COc2ccc(-c3ccn[nH]3)nc2)c1` [Example 14-9]: the IC50 against human CYP4F2 was 99 nM; at human CYP4A11 it was 2900 nM.
For the molecule `CCCCCc1cccc(COc2ccc(-c3ccn[nH]3)nc2)c1` [53-4], the IC50 stood at 32 nM against human CYP4F2 and 460 nM against human CYP4A11.
Regarding `CC(C)C(=O)N1CCC[C@H](COc2ccc(-c3ccn[nH]3)nc2)C1` [Example 1-12], the IC50 at human CYP4F2 was found to be 21 nM; against human CYP4A11 it was 330 nM.
As to `CC(C)c1cccc(COc2ccc(-c3ccn[nH]3)nc2)c1` [53-3], the IC50 on human CYP4F2 worked out at 140 nM; against human CYP4A11, 53 nM.
The corresponding values for `O=C(c1ccccc1)N1CCC(CCOc2ccc(-c3ccn[nH]3)nc2)CC1` [Example 4-3] are 210 nM and 270 nM.
On to `Fc1ccc(COc2ccc(-c3ccn[nH]3)nc2)cc1Cl` [54-6], for which the IC50 on human CYP4F2 turned out to be 29 nM; against human CYP4A11, 88 nM.
With `CS(=O)(=O)c1ccccc1OCCOc1ccc(-c2ccn[nH]2)nc1` [Example 14-14], the half-maximal inhibitory concentration (IC50) is 1400 nM against human CYP4F2 and 6100 nM against human CYP4A11.
The corresponding values for `O=C(CC1CC1)N1CCC(COc2ccc(-c3ccn[nH]3)nc2)CC1` [Example 2-2] are 78 nM and 930 nM.
As for `CC(C)OC(=O)NCCS(=O)(=O)N1CCC[C@@H](COc2ccc(-c3ccn[nH]3)nc2)C1` [Example 1-23], the IC50 at human CYP4F2 and against human CYP4A11 was 26 nM in each case.
Consider `CC(=O)N(C)CCC(=O)N1CCC[C@@H](COc2ccc(-c3ccn[nH]3)nc2)C1` [Example 3-42], for which the IC50 at human CYP4F2 is 900 nM; against human CYP4A11, 1800 nM.
The like results for `O=C(NCCC(=O)N1CCC[C@@H](COc2ccc(-c3ccn[nH]3)nc2)C1)c1ccccc1` [Example 3-45] were, in that order, 24 nM and 70 nM.
The corresponding values for `CN(C)S(=O)(=O)N1CCC(CCOc2ccc(-c3ccn[nH]3)nc2)CC1` [Example 10-24] are 350 nM and 390 nM.
The corresponding values for `CC(=O)N1CCCC[C@@H]1CCOc1ccc(-c2ccn[nH]2)nc1` [Example 13-5] are 5000 nM and 3300 nM.
Regarding `CC(=O)N(C)[C@H]1CC[C@@H](COc2ccc(-c3ccn[nH]3)nc2)CC1` [Example 15-1, N-Methyl-N-[cis-4-({[6-(1H-pyrazol-5-yl)pyridin-3-yl]oxy}methyl)cyclohexyl]acetamide], the IC50 at human CYP4F2 was 260 nM; against human CYP4A11 it was 690 nM.
The corresponding values for `CS(=O)(=O)c1cccc(COc2ccc(-n3ccnn3)nc2)c1` [Example 45-2] are 3100 nM and 640 nM.
With `CS(=O)(=O)c1cc(F)cc(COc2ccc(-c3ccn[nH]3)nc2)c1` [Example 16-5], the IC50 amounted to 310 nM against human CYP4F2 and 79 nM on human CYP4A11.
The like results for `CC(C)(C)OC(=O)N1CC[C@H]1C(=O)N1CCC[C@@H](COc2ccc(-c3ccn[nH]3)nc2)C1` [Example 3-47] were, in that order, 530 nM and 2100 nM.
The like results for `O=S(=O)(C1CC1)N1CCC[C@H](COc2ccc(-c3ccn[nH]3)nc2)C1` [Example 10-8] were, in that order, 130 nM and 59 nM.
The corresponding values for `N#Cc1ccc(COc2ccc(-c3ccn[nH]3)nc2)cc1` [54-20] are 6.5 nM and 1600 nM.
For `Clc1cc(Cl)cc(COc2ccc(-c3ccn[nH]3)nc2)c1` [54-10], the IC50 against human CYP4F2 stood at 290 nM; against human CYP4A11 it was 68 nM.
On to `CC(C)S(=O)(=O)N1CC(COc2ccc(-c3ccn[nH]3)nc2)C1` [Example 1-26], for which the results for the IC50 at human CYP4F2 and at human CYP4A11 were 93 nM and 2300 nM, respectively.
The like results for `CC(C)(O)CC(=O)N1CCC[C@@H](COc2ccc(-c3ccn[nH]3)nc2)C1` [Example 3-35] were, in that order, 790 nM and 1300 nM.
The corresponding values for `COC(=O)N1CCC(CCOc2ccc(-c3ccn[nH]3)nc2)C(C)C1` (single isomer, unassigned) [Example 1-16-1] are 240 nM and 53 nM.
For the molecule `O=C(N1CCC(COc2ccc(-c3ccn[nH]3)nc2)CC1)C1(O)CC1` [Example 2-10], the 50% inhibitory concentration (IC50) at human CYP4F2 amounted to 400 nM; against human CYP4A11, 1100 nM.
On to `COC(=O)N1CCC[C@@H](COc2ccc(-c3ccn[nH]3)nc2)C1` [Example 1-8], for which the IC50 against human CYP4F2 is 190 nM; against human CYP4A11, 130 nM.
The like results for `CC(=O)Nc1cc(COc2ccc(-c3ccn[nH]3)nc2)ccn1` [Example 14-6] were, in that order, 210 nM and 6100 nM.
As for `FC(F)(F)Oc1ccc(COc2ccc(-c3ccn[nH]3)nc2)cc1` [Example 25-22], the half-inhibitory concentration (IC50) against human CYP4F2 turned out to be 9.2 nM; on human CYP4A11 it was 1500 nM.
The corresponding values for `CS(=O)(=O)c1cccc(COc2ccc(-c3ccn[nH]3)nc2)c1` [Example 18-8, 5-[(3-Methylsulfonylphenyl)methoxy]-2-(1H-pyrazol-5-yl)pyridine] are 260 nM and 63 nM.

The values above are taken from patent US20210040062A1, “AZOLE-SUBSTITUTED PYRIDINE COMPOUND” (TAISHO PHARMACEUTICAL CO., LTD., priority 2016, published 2021).
